Results: patent publication US10238641B2, “Materials and methods for diagnosis, prevention and/or treatment of stress disorders and conditions associated with A-beta peptide aggregation” (The United States of America as represented by the …, priority 2008, dated 2019)

Tested on: nAChRs
Assay type: cell-based, rat

## CN1CCCC1c1cccnc1 (stereo not shown) [nicotine, reference compound]
  reversal by α-Bgt of the beneficial actions against Aβ toxicity: able to reverse the beneficial actions of nicotine
